Measurements published in patent US20260226043A1, “POLYMORPHS OF THE MALEIC ACID SALT OF LINAPRAZAN GLURATE” (Cinclus Pharma Holding AB (publ), priority 2023, published 2026).
“Also recorded” adds a separate entry of the source. Like-named read-outs stand apart in the source and are kept apart here. Marks after values point to notes of the source that are not given here.

Key:
[1] = Thermogravimetric analysis (TGA)
Protocol: Analyses were performed on a PerkinElmer TGA7 instrument. A few mg of sample was gently charged into open Pt-pans and analysed by weight in a flow of dry nitrogen gas (20 mL/min), to ensure an inert atmosphere. The sample was scanned from 25 to 200° C. using a continuous scan speed of 10° C./min. The weight loss was calculated from 25° C. up to 145° C.

[2] = Gravimetric/dynamic vapour sorption (GVS/DVS)
Protocol: Analyses were performed on an SMS DVS-1 instrument. A few mg of the substance was added into an Al pan and exposed to stepwise RH changes during two consecutive cycles according to 20-80-0-90-0%, in steps of 10% RH, using open loop mode. The experiments were performed using a gas flow rate of 200 mL/min and at 25° C. The dm/dt criteria applied was 0.001 weight-%/min during a 5-minute window, with a maximum allowed time of 360 minutes and a minimum allowed time of 10 minutes for all steps.
The hygroscopicity of Form 1 (obtained from the synthesis described below in example 1) was investigated using GVS at 25° C.

[3] = Slurry experiments (solid form stability, XRPD); assay type: physicochemical
Protocol: Slurry experiments were performed in various solvents. The samples were slurried for different periods of time depending on temperature. […] The water-containing slurries were performed to investigate possible hydrate formation.
Details of all slurry experiments performed, including solvent(s) used, total concentration and final form by XRPD, are given in Table 1.
Approximately 30 mg of linaprazan glurate maleic acid salt was used for each experiment, together with 20 different solvents (pure and binary solvents) at room temperature, at 4° C., at 40° C., and at 60° C., unless indicated otherwise. […] The solid phase was isolated and analysed with XRPD. The sample run at fridge temperature (ca 4° C.) was analysed after 26 and 53 days of slurry. The samples run at RT were analysed after 26 days of slurry. The samples run at 40° C. were analysed after 6 and 12 days of slurry. The samples run at 60° C. were analysed after 1 day of slurry.

gastric acid = details: Phase I and II studies; cited from earlier work
[4] = Phase I and II studies; cited from earlier work
clinical = details: human, in vivo
Protocol: Linaprazan glurate is a prodrug of linaprazan, which was disclosed in WO 99/55706 and previously studied in Phase I and II studies. […] A clinical Phase I study has shown that administration of a single dose of linaprazan glurate can maintain the intragastric acidity above pH 4 for 24 hours. Linaprazan glurate is therefore tailored for patients with severe erosive gastroesophageal reflux disease (eGERD).
It is estimated that this requires a minimal plasma concentration (Cmin) of linaprazan of at least about 240 nmol/L after 22 hours. At such doses, a once daily oral administration of the formulation would be sufficient. In some embodiments, therefore, a single unit dose of a pharmaceutical composition of linaprazan glurate provides a Cmin of linaprazan in a human of at least about 240 nmol/L after 22 hours following oral administration of the pharmaceutical composition to said human. In other embodiments, a daily administration of two unit doses of a pharmaceutical composition of linaprazan glurate provides a Cmin of linaprazan in a human of at least about 240 nmol/L after 10 hours following oral administration of the last unit dose of the pharmaceutical composition to said human.

[5] = cited from earlier work
[6] = free base Form A; cited from earlier work
intragastric acidity = details: cited from earlier work
[7] = cited from earlier work; remark: listed apart in the source

In the case of `Cc1cccc(C)c1CNc1cc(C(=O)NCCOC(=O)CCCC(=O)O)cn2c(C)c(C)nc12.O=C(O)/C=C\C(=O)O` [Form 1, maleic acid salt of 5-{2-[({8-[(2,6-dimethylbenzyl)amino]-2,3-dimethylimidazo[1,2-a]pyridine-6-yl}carbonyl)-amino]ethoxy}-5-oxopentanoic acid], the “weight loss (TGA)” value [1] is reported as 0.17%, the hygroscopicity classification ([2]; GVS/DVS at 25° C.) is reported as “slightly hygroscopic; also recorded: low hygroscopicity” and the water uptake ([2]; at 80% RH, dynamic vapour sorption) is reported as “about 0.45%”. The uptake of water ([2]; humidity range 0 to 80% RH, GVS at 25° C.) was roughly 0.4%, the Solid state form ([3]; slurry in 1,4-dioxane, 63 mg/mL, 40° C., 6 and 12 days) was “Form 1” and the Solid state form ([3]; slurry in 1,4-dioxane:DMA 9:1, 103 mg/mL, RT, 26 days) was “Form 1”. The Solid state form ([3]; slurry in 2-propanol, 56 mg/mL, 40° C., 6 and 12 days) was “Form 1 + Crystalline”, the Solid state form ([3]; slurry in 2-propanol:DMA 9:1, 91 mg/mL, RT, 26 days) was “Form 1” and the Solid state form ([3]; slurry in DMA, 890 mg/mL, RT, 26 days) was “Crystalline base form”. The Solid state form ([3]; slurry in DMA, 1369 mg/mL, 40° C., 6 and 12 days) was “Form 1 + Crystalline”, the Solid state form ([3]; slurry in EtOAc, 36 mg/mL, 40° C., 6 and 12 days) was “Form 1” and the Solid state form ([3]; slurry in EtOAc:DMA 9:1, 89 mg/mL, RT, 26 days) was “Form 1 + Crystalline”. For the same compound, the Solid state form ([3]; slurry in EtOH, 61 mg/mL, 40° C., 6 and 12 days) was “Form 1 + Crystalline”, the Solid state form ([3]; slurry in EtOH, 61 mg/mL, RT, 26 days) was “Form 1” and the Solid state form ([3]; slurry in MIBK, 53 mg/mL, 40° C., 6 and 12 days) was “Form 1”. For the same compound, the Solid state form ([3]; slurry in MIBK, 62 mg/mL, 60° C., 1 day) was “Form 1”, the Solid state form ([3]; slurry in MIBK:DMA 9:1, 84 mg/mL, RT, 26 days) was “Form 1” and the Solid state form ([3]; slurry in MTBE, 68 mg/mL, 40° C., 6 and 12 days) was “Form 1 + MTBE solvate”. The Solid state form ([3]; slurry in MTBE:DMA 9:1, 99 mg/mL, RT, 26 days, analysed also after 53 days) was “Form 1 + MTBE solvate*”, the Solid state form ([3]; slurry in MeCN, 52 mg/mL, 40° C., 6 and 12 days) was “Form 1” and the Solid state form ([3]; slurry in MeCN, 63 mg/mL, 60° C., 1 day) was “Form 1”. The Solid state form ([3]; slurry in MeCN:DMA 9:1, 85 mg/mL, RT, 26 days) was “Form 1 + Crystalline”, the Solid state form ([3]; slurry in MeOH, 51 mg/mL, 40° C., 6 and 12 days) was “Crystalline base form” and the Solid state form ([3]; slurry in MeOH, 55 mg/mL, RT, 26 days) was “Form 1 + Crystalline”. For the same compound, the Solid state form ([3]; slurry in MeOH:water 4:1, 52 mg/mL, ca 4° C., 26 and 53 days) was “Form 1 + Crystalline”, the Solid state form ([3]; slurry in MeOH:water 4:1, 58 mg/mL, RT, 26 days) was “Crystalline base form” and the Solid state form ([3]; slurry in THF, 53 mg/mL, 40° C., 6 and 12 days) was “Form 1 + Crystalline”. The Solid state form ([3]; slurry in THF, 63 mg/mL, 60° C., 1 day) was “Form 1”, the Solid state form ([3]; slurry in THF:DMA 9:1, 93 mg/mL, RT, 26 days) was “Form 1 + Crystalline” and the Solid state form ([3]; slurry in acetone, 29 mg/mL, RT, analysed after 21 days) was “Form 1**”. The Solid state form ([3]; slurry in benzyl alcohol, 332 mg/mL, RT, analysed after 21 days) was “Form 1**”.
In the case of `Cc1cccc(C)c1CNc1cc(C(=O)NCCO)cn2c(C)c(C)nc12` [linaprazan], the “duration of acid inhibition” value (gastric acid) is given as “too short duration of acid inhibition”, the “onset of action / effect” value (gastric acid) is given as “fast onset of action and full effect at first dose” and the “elimination from the body” value [4] is given as “quickly eliminated from the body”. For the same compound, the tolerability [4] was “well tolerated” and the concentration at 22 h (clinical) was no less than 240 nM.
In the case of `Cc1cccc(C)c1CNc1cc(C(=O)NCCOC(=O)CCCC(=O)O)cn2c(C)c(C)nc12` [Form A], the solubility in water ([5]; pH 1) is given as “only slightly soluble”, the solubility in water ([5]; pH 6.8) is given as “practically insoluble” and the hygroscopicity [6] is given as “very low hygroscopicity”. For the same compound, the “physical and chemical stability” value [6] was “good physical and chemical stability”.
For `Cc1cccc(C)c1CNc1cc(C(=O)NCCOC(=O)CCCC(=O)O)cn2c(C)c(C)nc12` [linaprazan glurate, 5-{2-[({8-[(2,6-dimethylbenzyl)amino]-2,3-dimethylimidazo[1,2-a]pyridine-6-yl}carbonyl)-amino]ethoxy}-5-oxopentanoic acid], the “control of the gastric acid production” value (intragastric acidity; compared to linaprazan) is given as “total control of the gastric acid production for a longer time”, the “intragastric acidity (pH) maintained” value (intragastric acidity; single dose, maintained for 24 hours, clinical Phase I study) is given as greater than 4 and the “plasma concentration of linaprazan glurate” value ([7]; after administration of linaprazan glurate) is given as “only very low and difficult to determine”. For the same compound, the “half-life in the body” value ([7]; compared to linaprazan) was “longer half-life in the body” and the metabolism ([7]; following absorption into the blood stream) was “quickly metabolized into linaprazan”.
